# Test: Effect of temperature (and pH) on the stability of the solution (purity)
# Format: physicochemical
# Settings: 7% solution in water
smiles,measurement,setting,value
CCN(CC)CCOC(=O)Cc1ccc(C(=O)c2ccc(C)cc2)n1C.Cl,Purity(%) at day 0,"pH 1.0, day 0",97.4 ± 0.4%
same,Purity(%) at day 21 (5° C.),"pH 1.0, day 21, 5° C.",90.3 ± 0.3%
same,Purity(%) at day 21 (25° C.),"pH 1.0, day 21, 25° C.",65.5 ± 0.3%
same,Purity(%) at day 21 (40° C.),"pH 1.0, day 21, 40° C.",9.4 ± 0.3%
same,Purity (%) at day 21 (60° C.),"pH 1.0, day 21, 60° C.",0%
same,Purity(%) at day 0,"pH 2.0, day 0",97.6 ± 0.3%
same,Purity(%) at day 21 (5° C.),"pH 2.0, day 21, 5° C.",93.5 ± 0.3%
same,Purity(%) at day 21 (25° C.),"pH 2.0, day 21, 25° C.",78.1 ± 0.3%
same,Purity(%) at day 21 (40° C.),"pH 2.0, day 21, 40° C.",20.6 ± 0.3%
same,Purity (%) at day 21 (60° C.),"pH 2.0, day 21, 60° C.",0%
same,Purity(%) at day 0,"pH 3.0, day 0",97.8 ± 0.2%
same,Purity(%) at day 21 (5° C.),"pH 3.0, day 21, 5° C.",95.3 ± 0.3%
same,Purity(%) at day 21 (25° C.),"pH 3.0, day 21, 25° C.",91.2 ± 0.2%
same,Purity(%) at day 21 (40° C.),"pH 3.0, day 21, 40° C.",41.7 ± 0.2%
same,Purity (%) at day 21 (60° C.),"pH 3.0, day 21, 60° C.",0%
same,Purity(%) at day 0,"pH 3.7, day 0",97.9 ± 0.2%
same,Purity(%) at day 21 (5° C.),"pH 3.7, day 21, 5° C.",96.4 ± 0.2%
same,Purity(%) at day 21 (25° C.),"pH 3.7, day 21, 25° C.",95.6 ± 0.2%
same,Purity(%) at day 21 (40° C.),"pH 3.7, day 21, 40° C.",56.6 ± 0.2%
same,Purity (%) at day 21 (60° C.),"pH 3.7, day 21, 60° C.",11.5 ± 0.3%
same,Purity(%) at day 0,"pH 4.0, day 0",98.1 ± 0.1%
same,Purity(%) at day 21 (5° C.),"pH 4.0, day 21, 5° C.",96.8 ± 0.1%
same,Purity(%) at day 21 (25° C.),"pH 4.0, day 21, 25° C.",95.7 ± 0.2%
same,Purity(%) at day 21 (40° C.),"pH 4.0, day 21, 40° C.",58.3 ± 0.2%
same,Purity (%) at day 21 (60° C.),"pH 4.0, day 21, 60° C.",23.0 ± 0.3%
same,Purity(%) at day 0,"pH 4.3, day 0",98.1 ± 0.2%
same,Purity(%) at day 21 (5° C.),"pH 4.3, day 21, 5° C.",96.9 ± 0.1%
same,Purity(%) at day 21 (25° C.),"pH 4.3, day 21, 25° C.",95.4 ± 0.1%
same,Purity(%) at day 21 (40° C.),"pH 4.3, day 21, 40° C.",60.1 ± 0.1%
same,Purity (%) at day 21 (60° C.),"pH 4.3, day 21, 60° C.",25.8 ± 0.2%
same,Purity(%) at day 0,"pH 4.6, day 0",97.9 ± 0.1%
same,Purity(%) at day 21 (5° C.),"pH 4.6, day 21, 5° C.",96.3 ± 0.2%
same,Purity(%) at day 21 (25° C.),"pH 4.6, day 21, 25° C.",94.9 ± 0.2%
same,Purity(%) at day 21 (40° C.),"pH 4.6, day 21, 40° C.",55.3 ± 0.2%
same,Purity (%) at day 21 (60° C.),"pH 4.6, day 21, 60° C.",13.5 ± 0.3%
same,Purity(%) at day 0,"pH 5.0, day 0",97.8 ± 0.2%
same,Purity(%) at day 21 (5° C.),"pH 5.0, day 21, 5° C.",96.1 ± 0.2%
same,Purity(%) at day 21 (25° C.),"pH 5.0, day 21, 25° C.",92.1 ± 0.3%
same,Purity(%) at day 21 (40° C.),"pH 5.0, day 21, 40° C.",37.8 ± 0.3%
same,Purity (%) at day 21 (60° C.),"pH 5.0, day 21, 60° C.",1.7 ± 0.3%
same,Purity(%) at day 0,"pH 6.0, day 0",97.6 ± 0.3%
same,Purity(%) at day 21 (5° C.),"pH 6.0, day 21, 5° C.",94.4 ± 0.2%
same,Purity(%) at day 21 (25° C.),"pH 6.0, day 21, 25° C.",79.5 ± 0.3%
same,Purity(%) at day 21 (40° C.),"pH 6.0, day 21, 40° C.",19.5 ± 0.2%
same,Purity (%) at day 21 (60° C.),"pH 6.0, day 21, 60° C.",0%
same,Purity(%) at day 0,"pH 7.0, day 0",97.4 ± 0.3%
same,Purity(%) at day 21 (5° C.),"pH 7.0, day 21, 5° C.",90.0 ± 0.3%
same,Purity(%) at day 21 (25° C.),"pH 7.0, day 21, 25° C.",59.7 ± 0.3%
same,Purity(%) at day 21 (40° C.),"pH 7.0, day 21, 40° C.",5.7 ± 0.3%
same,Purity (%) at day 21 (60° C.),"pH 7.0, day 21, 60° C.",0%
same,Purity(%) at day 0,"pH 8.0, day 0",97.1 ± 0.3%
same,Purity(%) at day 21 (5° C.),"pH 8.0, day 21, 5° C.",78.1 ± 0.3%
same,Purity(%) at day 21 (25° C.),"pH 8.0, day 21, 25° C.",43.6 ± 0.4%
same,Purity(%) at day 21 (40° C.),"pH 8.0, day 21, 40° C.",0%
same,Purity (%) at day 21 (60° C.),"pH 8.0, day 21, 60° C.",0%
CCN(CC)CCOC(=O)CC1=C(C)C(=Cc2ccc([S+](C)[O-])cc2)c2ccc(F)cc21.Cl (centres unmarked),Purity(%) at day 0,"pH 1.0, day 0",97.2 ± 0.3%
same,Purity(%) at day 21 (5° C.),"pH 1.0, day 21, 5° C.",91.1 ± 0.4%
same,Purity(%) at day 21 (25° C.),"pH 1.0, day 21, 25° C.",67.5 ± 0.4%
same,Purity(%) at day 21 (40° C.),"pH 1.0, day 21, 40° C.",10.4 ± 0.4%
same,Purity (%) at day 21 (60° C.),"pH 1.0, day 21, 60° C.",0%
same,Purity(%) at day 0,"pH 2.0, day 0",97.3 ± 0.3%
same,Purity(%) at day 21 (5° C.),"pH 2.0, day 21, 5° C.",94.7 ± 0.3%
same,Purity(%) at day 21 (25° C.),"pH 2.0, day 21, 25° C.",81.1 ± 0.3%
same,Purity(%) at day 21 (40° C.),"pH 2.0, day 21, 40° C.",23.6 ± 0.3%
same,Purity (%) at day 21 (60° C.),"pH 2.0, day 21, 60° C.",0%
same,Purity(%) at day 0,"pH 3.0, day 0",97.6 ± 0.2%
same,Purity(%) at day 21 (5° C.),"pH 3.0, day 21, 5° C.",96.3 ± 0.2%
same,Purity(%) at day 21 (25° C.),"pH 3.0, day 21, 25° C.",92.2 ± 0.2%
same,Purity(%) at day 21 (40° C.),"pH 3.0, day 21, 40° C.",45.7 ± 0.3%
same,Purity (%) at day 21 (60° C.),"pH 3.0, day 21, 60° C.",0%
same,Purity(%) at day 0,"pH 3.7, day 0",97.6 ± 0.2%
same,Purity(%) at day 21 (5° C.),"pH 3.7, day 21, 5° C.",97.3 ± 0.2%
same,Purity(%) at day 21 (25° C.),"pH 3.7, day 21, 25° C.",96.8 ± 0.2%
same,Purity(%) at day 21 (40° C.),"pH 3.7, day 21, 40° C.",55.5 ± 0.2%
same,Purity (%) at day 21 (60° C.),"pH 3.7, day 21, 60° C.",13.5 ± 0.3%
same,Purity(%) at day 0,"pH 4.0, day 0",97.9 ± 0.1%
same,Purity(%) at day 21 (5° C.),"pH 4.0, day 21, 5° C.",97.4 ± 0.1%
same,Purity(%) at day 21 (25° C.),"pH 4.0, day 21, 25° C.",96.9 ± 0.1%
same,Purity(%) at day 21 (40° C.),"pH 4.0, day 21, 40° C.",60.3 ± 0.2%
same,Purity (%) at day 21 (60° C.),"pH 4.0, day 21, 60° C.",19.7 ± 0.3%
same,Purity(%) at day 0,"pH 4.3, day 0",97.7 ± 0.2%
same,Purity(%) at day 21 (5° C.),"pH 4.3, day 21, 5° C.",97.3 ± 0.1%
same,Purity(%) at day 21 (25° C.),"pH 4.3, day 21, 25° C.",96.7 ± 0.1%
same,Purity(%) at day 21 (40° C.),"pH 4.3, day 21, 40° C.",63.1 ± 0.1%
same,Purity (%) at day 21 (60° C.),"pH 4.3, day 21, 60° C.",16.8 ± 0.2%
same,Purity(%) at day 0,"pH 4.6, day 0",97.8 ± 0.1%
same,Purity(%) at day 21 (5° C.),"pH 4.6, day 21, 5° C.",97.3 ± 0.2%
same,Purity(%) at day 21 (25° C.),"pH 4.6, day 21, 25° C.",95.9 ± 0.2%
same,Purity(%) at day 21 (40° C.),"pH 4.6, day 21, 40° C.",57.3 ± 0.2%
same,Purity (%) at day 21 (60° C.),"pH 4.6, day 21, 60° C.",15.5 ± 0.3%
same,Purity(%) at day 0,"pH 5.0, day 0",97.7 ± 0.3%
same,Purity(%) at day 21 (5° C.),"pH 5.0, day 21, 5° C.",96.1 ± 0.2%
same,Purity(%) at day 21 (25° C.),"pH 5.0, day 21, 25° C.",93.9 ± 0.3%
same,Purity(%) at day 21 (40° C.),"pH 5.0, day 21, 40° C.",38.9 ± 0.3%
same,Purity (%) at day 21 (60° C.),"pH 5.0, day 21, 60° C.",1.5 ± 0.3%
same,Purity(%) at day 0,"pH 6.0, day 0",97.5 ± 0.3%
same,Purity(%) at day 21 (5° C.),"pH 6.0, day 21, 5° C.",94.4 ± 0.3%
same,Purity(%) at day 21 (25° C.),"pH 6.0, day 21, 25° C.",88.9 ± 0.2%
same,Purity(%) at day 21 (40° C.),"pH 6.0, day 21, 40° C.",21.6 ± 0.2%
same,Purity (%) at day 21 (60° C.),"pH 6.0, day 21, 60° C.",0%
same,Purity(%) at day 0,"pH 7.0, day 0",97.3 ± 0.3%
same,Purity(%) at day 21 (5° C.),"pH 7.0, day 21, 5° C.",89.0 ± 0.3%
same,Purity(%) at day 21 (25° C.),"pH 7.0, day 21, 25° C.",59.8 ± 0.3%
same,Purity(%) at day 21 (40° C.),"pH 7.0, day 21, 40° C.",5.4 ± 0.3%
same,Purity (%) at day 21 (60° C.),"pH 7.0, day 21, 60° C.",0%
same,Purity(%) at day 0,"pH 8.0, day 0",96.9 ± 0.4%
same,Purity(%) at day 21 (5° C.),"pH 8.0, day 21, 5° C.",77.1 ± 0.3%
same,Purity(%) at day 21 (25° C.),"pH 8.0, day 21, 25° C.",44.5 ± 0.4%
same,Purity(%) at day 21 (40° C.),"pH 8.0, day 21, 40° C.",0%
same,Purity (%) at day 21 (60° C.),"pH 8.0, day 21, 60° C.",0%
